The structures appear in SMILES notation. *1 amine or outer side, *2 acyl side, *3 side chain or, on linkers, in order; H or OH if unused. Where a SMILES comes first, the peptide text is derived from it. Side-chain parts run from the residue outwards. [ ]: non-standard residue; d: D form. The star is where a group is joined. PEG12 = NCCOCCOCCOCCOCCOCCOCCOCCOCCOCCOCCOCCOCCC(=O)O; γGlu = O=C(O)[C@H](CCC(=O)[*:2])N[*:1]; Stearoyl = CCCCCCCCCCCCCCCCCC(=O)*; Palmitoyl = CCCCCCCCCCCCCCCC(=O)*; αMeK = C[C@](N)(CCCCN)C(=O)O; αMeS = C[C@](N)(CO)C(=O)O; Nle = CCCC[C@H](N)C(=O)O; AEEA = NCCOCCOCC(=O)O; Aib = CC(C)(N)C(=O)O

Here are results for seven compounds from US10988523B2, “Modified lipidated Relaxin B chain peptides and their therapeutic use” (Sanofi, priority 2018, dated 2021).

The target of the assay is T1, RXFP1 (Homo sapiens, UniProt Q9HBX9).
T1 construct: OVCAR5 cells expressing endogenous RXFP1; endogenous in cells; host or cells: OVCAR5 cells
T1 sequence (Q9HBX9 1-757): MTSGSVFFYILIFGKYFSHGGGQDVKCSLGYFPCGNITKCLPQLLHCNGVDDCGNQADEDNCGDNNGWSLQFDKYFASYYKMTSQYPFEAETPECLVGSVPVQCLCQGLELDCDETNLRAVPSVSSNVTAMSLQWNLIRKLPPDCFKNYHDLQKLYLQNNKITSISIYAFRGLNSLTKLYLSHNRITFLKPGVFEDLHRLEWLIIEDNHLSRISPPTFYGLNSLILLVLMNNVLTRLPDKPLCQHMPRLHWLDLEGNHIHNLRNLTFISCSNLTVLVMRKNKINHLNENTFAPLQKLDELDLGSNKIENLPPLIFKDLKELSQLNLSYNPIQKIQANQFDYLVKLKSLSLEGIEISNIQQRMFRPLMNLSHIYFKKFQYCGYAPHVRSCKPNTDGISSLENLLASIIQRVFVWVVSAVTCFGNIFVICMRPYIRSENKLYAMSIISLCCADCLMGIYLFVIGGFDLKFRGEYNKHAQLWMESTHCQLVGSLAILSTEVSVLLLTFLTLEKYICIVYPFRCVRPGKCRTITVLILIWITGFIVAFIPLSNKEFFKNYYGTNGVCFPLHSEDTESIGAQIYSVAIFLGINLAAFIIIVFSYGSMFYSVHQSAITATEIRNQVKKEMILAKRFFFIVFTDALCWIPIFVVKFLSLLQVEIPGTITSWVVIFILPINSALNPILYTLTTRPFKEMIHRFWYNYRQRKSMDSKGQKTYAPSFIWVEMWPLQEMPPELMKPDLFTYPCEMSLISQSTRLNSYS
As to the kind of experiment: OVCAR5 cAMP assay (HTRF), RXFP1 agonist activity. Particulars: for Emax: OVCAR-5, maximal cAMP relative to H2-relaxin maximum (100%), read-out: EMax, OVCAR 5 cells (cAMP); for EC50: OVCAR5 cells, cAMP HTRF, read-out: EC50 (nM), OVCAR 5 cells (cAMP). It is filed as cell-based. In short, it runs like this: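 cAMP accumulation readout: after 1 mM IBMX for 40 min, endogenous-RXFP1 OVCAR5 cells got rising peptide concentrations without FCS, 30 min, 37° C, then lysis with HTRF cAMP reagents. Nonlinear regression gave EC50; Emax expressed relative to H2-relaxin maximum, same occasion.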

In the case of `CCCCCCCCCCCCCCCCCC(=O)N[C@@H](CCC(=O)N[C@@H](CCC(=O)N[C@@H](CCC(=O)NCCCC[C@H](NC(=O)CCOCCOCCOCCOCCOCCOCCOCCOCCOCCOCCOCCOCCNC(=O)[C@H](CCCCN)NC(=O)[C@H](CCCNC(=N)N)NC(=O)C(C)(C)NC(=O)[C@H](CO)NC(=O)[C@H](Cc1c[nH]c2ccccc12)NC(=O)[C@@H](NC(=O)[C@H](CO)NC(=O)[C@H](CCCC)NC(=O)CNC(=O)[C@H](CCC(=O)O)NC(=O)C(C)(C)NC(=O)C(C)(C)NC(=O)[C@@H](NC(=O)[C@H](CCCCNC(C)=O)NC(=O)[C@H](C)NC(=O)[C@H](CCCNC(=N)N)NC(=O)[C@@H](NC(=O)[C@H](CCCCN)NC(=O)[C@H](CCC(=O)O)NC(=O)[C@H](CCCNC(=N)N)NC(=O)CNC(=O)[C@H](CCC(=O)O)NC(=O)[C@H](CC(C)C)NC(C)=O)C(C)C)[C@@H](C)CC)[C@@H](C)O)C(N)=O)C(=O)O)C(=O)O)C(=O)O` [compound 34] (Ac-LEGREKVRAK(Ac)I[Aib][Aib]EG[Nle]STWS[Aib]RK[PEG12]K([γGlu-γGlu-γGlu-Stearoyl])-NH2), the Emax came out at 95%.
Take `CCCCCCCCCCCCCCCCCC(=O)N[C@@H](CCC(=O)N[C@@H](CCC(=O)N[C@@H](CCC(=O)NCCCC[C@H](NC(=O)CCOCCOCCOCCOCCOCCOCCOCCOCCOCCOCCOCCOCCNC(=O)[C@H](CCCCN)NC(=O)[C@H](CCCNC(=N)N)NC(=O)C(C)(C)NC(=O)[C@H](CO)NC(=O)[C@H](Cc1c[nH]c2ccccc12)NC(=O)[C@@H](NC(=O)[C@H](CO)NC(=O)[C@H](CCSC)NC(=O)CNC(=O)[C@H](CCC(=O)O)NC(=O)C(C)(C)NC(=O)C(C)(C)NC(=O)[C@@H](NC(=O)[C@H](CCCCNC(C)=O)NC(=O)[C@H](C)NC(=O)[C@H](CCCNC(=N)N)NC(=O)[C@@H](NC(=O)[C@H](CCCCN)NC(=O)[C@H](CCC(=O)O)NC(=O)[C@H](CCCNC(=N)N)NC(=O)CNC(=O)[C@H](CCC(=O)O)NC(=O)[C@H](CC(C)C)NC(C)=O)C(C)C)[C@@H](C)CC)[C@@H](C)O)C(N)=O)C(=O)O)C(=O)O)C(=O)O` [compound 35] (Ac-LEGREKVRAK(Ac)I[Aib][Aib]EGMSTWS[Aib]RK[PEG12]K([γGlu-γGlu-γGlu-Stearoyl])-NH2): the Emax was 95%.
On the same count and under the same terms, then `CCCCCCCCCCCCCCCCCC(=O)N[C@@H](CCC(=O)N[C@@H](CCC(=O)N[C@@H](CCC(=O)NCCCC[C@H](NC(=O)CCOCCOCCOCCOCCOCCOCCOCCOCCOCCOCCOCCOCCNC(=O)[C@H](CCCCNC(C)=O)NC(=O)[C@H](CCCCN)NC(=O)[C@H](CCCNC(=N)N)NC(=O)C(C)(C)NC(=O)[C@H](CO)NC(=O)[C@H](Cc1c[nH]c2ccccc12)NC(=O)[C@@H](NC(=O)[C@H](CO)NC(=O)[C@H](CCCC)NC(=O)CNC(=O)[C@H](CCC(=O)O)NC(=O)C(C)(C)NC(=O)C(C)(C)NC(=O)[C@@H](NC(=O)[C@H](CCCCNC(C)=O)NC(=O)C(C)(C)NC(=O)[C@H](CCCNC(=N)N)NC(=O)[C@@H](NC(=O)[C@H](CCCCN)NC(=O)[C@H](CCC(=O)O)NC(=O)[C@H](CCCNC(=N)N)NC(=O)CNC(=O)[C@H](CCC(=O)O)NC(=O)[C@H](CC(C)C)NC(C)=O)C(C)C)[C@@H](C)CC)[C@@H](C)O)C(N)=O)C(=O)O)C(=O)O)C(=O)O` [compound 36] (Ac-LEGREKVR[Aib]K(Ac)I[Aib][Aib]EG[Nle]STWS[Aib]RKK(Ac)[PEG12]K([γGlu-γGlu-γGlu-Stearoyl])-NH2), with 84%.
Turning to `CCCCCCCCCCCCCCCCCC(=O)N[C@@H](CCC(=O)N[C@@H](CCC(=O)N[C@@H](CCC(=O)NCCCC[C@H](NC(=O)CCOCCOCCOCCOCCOCCOCCOCCOCCOCCOCCOCCOCCNC(=O)[C@H](CCCCNC(C)=O)NC(=O)[C@H](CCCCN)NC(=O)[C@H](CCCNC(=N)N)NC(=O)C(C)(C)NC(=O)[C@](C)(CO)NC(=O)[C@H](Cc1c[nH]c2ccccc12)NC(=O)[C@@H](NC(=O)[C@H](CO)NC(=O)[C@H](CCCC)NC(=O)CNC(=O)[C@H](CCC(=O)O)NC(=O)C(C)(C)NC(=O)C(C)(C)NC(=O)[C@@H](NC(=O)[C@H](CCCCNC(C)=O)NC(=O)[C@H](C)NC(=O)[C@H](CCCNC(=N)N)NC(=O)[C@@H](NC(=O)[C@H](CCCCN)NC(=O)[C@H](CCC(=O)O)NC(=O)[C@H](CCCNC(=N)N)NC(=O)CNC(=O)[C@H](CCC(=O)O)NC(=O)[C@H](CC(C)C)NC(C)=O)C(C)C)[C@@H](C)CC)[C@@H](C)O)C(N)=O)C(=O)O)C(=O)O)C(=O)O` [compound 41] (Ac-LEGREKVRAK(Ac)I[Aib][Aib]EG[Nle]STW[αMeS][Aib]RKK(Ac)[PEG12]K([γGlu-γGlu-γGlu-Stearoyl])-NH2), the EC50 was found to be 0.09 nM and the Emax was 87%.
For `CCCCCCCCCCCCCCCC(=O)N[C@@H](CCC(=O)N[C@@H](CCC(=O)N[C@@H](CCC(=O)N[C@@H](CCC(=O)NCCCC[C@H](NC(=O)CCOCCOCCOCCOCCOCCOCCOCCOCCOCCOCCOCCOCCNC(=O)[C@H](CCCCNC(C)=O)NC(=O)[C@H](CCCCN)NC(=O)[C@H](CCCNC(=N)N)NC(=O)[C@](C)(CCCCN)NC(=O)[C@H](CO)NC(=O)[C@H](Cc1c[nH]c2ccccc12)NC(=O)[C@@H](NC(=O)[C@H](CO)NC(=O)[C@H](CCCC)NC(=O)CNC(=O)[C@H](CCC(=O)O)NC(=O)C(C)(C)NC(=O)C(C)(C)NC(=O)[C@@H](NC(=O)[C@H](CCCCNC(C)=O)NC(=O)[C@H](C)NC(=O)[C@H](CCCNC(=N)N)NC(=O)[C@@H](NC(=O)[C@H](CCCCN)NC(=O)[C@H](CCC(=O)O)NC(=O)[C@H](CCCNC(=N)N)NC(=O)CNC(=O)[C@H](CCC(=O)O)NC(=O)[C@H](CC(C)C)NC(C)=O)C(C)C)[C@@H](C)CC)[C@@H](C)O)C(N)=O)C(=O)O)C(=O)O)C(=O)O)C(=O)O` [compound 43] (Ac-LEGREKVRAK(Ac)I[Aib][Aib]EG[Nle]STWS[αMeK]RKK(Ac)[PEG12]K([γGlu-γGlu-γGlu-γGlu-Palmitoyl])-NH2), the EC50 was determined as 0.14 nM and the Emax was determined as 106%.
With `CCCCCCCCCCCCCCCC(=O)N[C@@H](CCC(=O)N[C@@H](CCC(=O)N[C@@H](CCC(=O)NCCOCCOCC(=O)NCCOCCOCC(=O)NCCOCCOCC(=O)NCCCC[C@H](NC(=O)[C@H](CCCCNC(C)=O)NC(=O)[C@H](CCCCN)NC(=O)[C@H](CCCNC(=N)N)NC(=O)C(C)(C)NC(=O)[C@H](CO)NC(=O)[C@H](Cc1ccc(O)cc1)NC(=O)[C@@H](NC(=O)[C@H](CO)NC(=O)[C@H](CCC(N)=O)NC(=O)CNC(=O)[C@H](CCC(=O)O)NC(=O)C(C)(C)NC(=O)C(C)(C)NC(=O)[C@@H](NC(=O)[C@H](CCCCNC(C)=O)NC(=O)[C@H](C)NC(=O)[C@H](CCCNC(=N)N)NC(=O)[C@@H](NC(=O)[C@H](CCCCN)NC(=O)[C@H](CCC(=O)O)NC(=O)[C@H](CCCNC(=N)N)NC(=O)CNC(=O)[C@H](CCC(=O)O)NC(=O)[C@H](CC(C)C)NC(C)=O)C(C)C)[C@@H](C)CC)[C@@H](C)O)C(N)=O)C(=O)O)C(=O)O)C(=O)O` [compound 44] (Ac-LEGREKVRAK(Ac)I[Aib][Aib]EGQSTYS[Aib]RKK(Ac)K([AEEA-AEEA-AEEA-γGlu-γGlu-γGlu-Palmitoyl])-NH2), the maximal effect (Emax) is 75%.
On to `CCCCCCCCCCCCCCCCCC(=O)N[C@@H](CCC(=O)N[C@@H](CCC(=O)N[C@@H](CCC(=O)NCCCC[C@H](NC(=O)CCOCCOCCOCCOCCOCCOCCOCCOCCOCCOCCOCCOCCNC(=O)[C@H](CCCCNC(C)=O)NC(=O)[C@H](CCCCN)NC(=O)[C@H](CCCNC(=N)N)NC(=O)C(C)(C)NC(=O)[C@H](CO)NC(=O)[C@H](Cc1ccc(O)cc1)NC(=O)[C@@H](NC(=O)[C@H](CO)NC(=O)[C@H](CCCC)NC(=O)CNC(=O)[C@H](CCC(=O)O)NC(=O)C(C)(C)NC(=O)C(C)(C)NC(=O)[C@@H](NC(=O)[C@H](CCCCNC(C)=O)NC(=O)[C@H](C)NC(=O)[C@H](CCCNC(=N)N)NC(=O)[C@@H](NC(=O)[C@H](CCCCN)NC(=O)[C@H](CCC(=O)O)NC(=O)[C@H](CCCNC(=N)N)NC(=O)CNC(=O)[C@H](CCC(=O)O)NC(=O)[C@H](CC(C)C)NC(C)=O)C(C)C)[C@@H](C)CC)[C@@H](C)O)C(N)=O)C(=O)O)C(=O)O)C(=O)O` [compound 46] (Ac-LEGREKVRAK(Ac)I[Aib][Aib]EG[Nle]STYS[Aib]RKK(Ac)[PEG12]K([γGlu-γGlu-γGlu-Stearoyl])-NH2), for which the EC50 amounted to 0.61 nM and the Emax was 79%.
